The subject of the test is HIV-1. Briefly: HIV-1 inhibition assay, isolates not separated. To be noted: across HIV-1 clades; effect augmented with streptavidin conjugation. It counts as cell-based.

As to SSCSVRSSCRLYYSC, the “HIV-1 inhibitory activity, in words” value is reported as “did not show any HIV-1 inhibition”.

Values taken from paper PMC3805977 (Scientific Reports, 2013).
